Target: T1, USP28 (USP28-5(1-1077)-TEV-6*His; LifeSensors) (Homo sapiens, UniProt Q96RU2)
T1 construct: construct USP28 (USP28-5(1-1077)-TEV-6*His; LifeSensors); TEV cleavage site (C); 6xHis (C); purchased LifeSensors
T1 sequence (Q96RU2 1-1077): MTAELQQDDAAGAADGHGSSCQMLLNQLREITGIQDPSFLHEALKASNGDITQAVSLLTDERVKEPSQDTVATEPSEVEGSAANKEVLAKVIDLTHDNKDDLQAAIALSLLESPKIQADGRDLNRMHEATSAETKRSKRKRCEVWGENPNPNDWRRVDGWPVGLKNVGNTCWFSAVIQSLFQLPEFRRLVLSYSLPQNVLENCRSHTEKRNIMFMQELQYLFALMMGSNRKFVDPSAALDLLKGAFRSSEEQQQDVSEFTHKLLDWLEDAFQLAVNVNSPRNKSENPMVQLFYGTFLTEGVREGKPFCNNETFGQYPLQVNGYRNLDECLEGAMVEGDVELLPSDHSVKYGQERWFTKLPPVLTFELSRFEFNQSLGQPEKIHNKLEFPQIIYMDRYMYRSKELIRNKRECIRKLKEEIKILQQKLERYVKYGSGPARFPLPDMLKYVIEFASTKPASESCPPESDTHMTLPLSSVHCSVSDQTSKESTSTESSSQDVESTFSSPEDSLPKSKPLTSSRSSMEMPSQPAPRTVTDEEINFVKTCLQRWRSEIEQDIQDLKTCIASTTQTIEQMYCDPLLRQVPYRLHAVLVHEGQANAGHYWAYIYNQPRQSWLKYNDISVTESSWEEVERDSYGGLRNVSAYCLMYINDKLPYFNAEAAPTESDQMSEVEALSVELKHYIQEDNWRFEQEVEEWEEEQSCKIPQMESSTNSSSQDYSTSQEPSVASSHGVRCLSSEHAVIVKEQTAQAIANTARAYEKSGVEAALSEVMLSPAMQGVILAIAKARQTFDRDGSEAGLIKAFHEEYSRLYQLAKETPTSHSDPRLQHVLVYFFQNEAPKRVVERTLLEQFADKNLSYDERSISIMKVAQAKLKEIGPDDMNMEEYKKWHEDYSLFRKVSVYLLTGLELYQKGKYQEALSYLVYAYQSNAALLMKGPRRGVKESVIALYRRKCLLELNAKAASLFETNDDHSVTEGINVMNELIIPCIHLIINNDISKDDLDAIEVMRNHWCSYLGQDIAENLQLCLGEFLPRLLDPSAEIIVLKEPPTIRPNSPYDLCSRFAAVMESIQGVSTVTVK
Experiment: Ubiquitin-Rhodamine 110 Assay for USP28 Activity, Example A-1(b)
Assay type: biochemical
In short: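 Single-point screening used 10 μM compound with 90 min room-temperature incubation; follow-up dose-responses (25 μM top, 3-fold) used 75 pM USP28 1-1077 construct, 30 min compound preincubation, 25 nM Ub-Rh110, 20 min reaction, citric acid quench. Rh110 fluorescence normalised to no-enzyme and DMSO controls; IC50 from 4-parameter logistic fit.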

[1] = Ubiquitin-Rhodamine 110 assay, format Example A-1(b)

Compound: Cc1ccc2c(N)c(C(=O)N[C@H]3COc4cc(N5CCN[C@@H](C)[C@H]5C)ccc4C3)sc2n1 (single isomer, unassigned) [Example 1-7]
- USP28 A-1(b) IC50 range (Ub-Rh110 assay, Example A-1(b)): ++++ (0.001-0.05 μM)

Compound: Cc1nc2sc(C(=O)N[C@H]3CCc4cc(N5CCNCC5)ccc4C3)c(N)c2s1 (single isomer, unassigned) [Example 11-33]
- USP28 A-1(b) IC50 range [1]: + (>2 μM)

Compound: Cc1nc2sc(C(=O)N[C@@H]3CCc4cc(N5CC6CCC(C5)N6)ccc4C3)c(N)c2s1 (single isomer, unassigned) [Example 12-2]
- USP28 A-1(b) IC50 range [1]: ++ (0.2-2 μM)

Compound: Cc1ccc2c(N)c(C(=O)N[C@@H]3CCc4c(ccc(N5CC6CCC(C5)N6)c4C#N)C3)sc2n1 (single isomer, unassigned) [Example 14-1]
- USP28 A-1(b) IC50 range [1]: ++++ (0.001-0.05 μM)

Compound: Cc1ccc2c(N)c(C(=O)N[C@H]3CCc4c(ccc(N5CC6CCC(C5)N6)c4C#N)C3)sc2n1 (single isomer, unassigned) [Example 14-2]
- USP28 A-1(b) IC50 range [1]: ++ (0.2-2 μM)

Compound: Cc1ccc2c(N)c(C(=O)N[C@@H]3CCc4cc(N5CC6CCC(C5)N6)c(C#N)cc4C3)sc2n1 (single isomer, unassigned) [Example 14-3]
- USP28 A-1(b) IC50 range [1]: ++ (0.2-2 μM)

Compound: Cc1ccc2c(N)c(C(=O)N[C@H]3CCc4cc(N5CC6CCC(C5)N6)c(C#N)cc4C3)sc2n1 (single isomer, unassigned) [Example 14-4]
- USP28 A-1(b) IC50 range [1]: ++++ (0.001-0.05 μM)

Compound: Cc1cnc2c(N)c(C(=O)N[C@@H]3CCc4c(ccc(N5CC6CCC(C5)N6)c4C#N)C3)sc2n1 (single isomer, unassigned) [Example 14-5]
- USP28 A-1(b) IC50 range [1]: +++ (0.05-0.2 μM)

Compound: Cc1cnc2c(N)c(C(=O)N[C@H]3CCc4c(ccc(N5CC6CCC(C5)N6)c4C#N)C3)sc2n1 (single isomer, unassigned) [Example 14-6]
- USP28 A-1(b) IC50 range [1]: + (>2 μM)

Compound: Cc1cnc2c(N)c(C(=O)N[C@@H]3CCc4cc(N5CC6CCC(C5)N6)c(C#N)cc4C3)sc2n1 (single isomer, unassigned) [Example 14-7]
- USP28 A-1(b) IC50 range [1]: ++ (0.2-2 μM)

Compound: Cc1cnc2c(N)c(C(=O)N[C@H]3CCc4cc(N5CC6CCC(C5)N6)c(C#N)cc4C3)sc2n1 (single isomer, unassigned) [Example 14-8]
- USP28 A-1(b) IC50 range [1]: ++++ (0.001-0.05 μM)

Source: US11524966B1 (Valo Early Discovery, Inc., priority 2017, dated 2022)
